Results on two compounds are retold here after US6309842A, “Use of modified tethers in screening compound libraries” (Glaxo Wellcome Inc., priority 1997, dated 2001).

One assay has as its target T1, IL-1R (Homo sapiens, UniProt P14778).
T1 sequence (P14778 18-569): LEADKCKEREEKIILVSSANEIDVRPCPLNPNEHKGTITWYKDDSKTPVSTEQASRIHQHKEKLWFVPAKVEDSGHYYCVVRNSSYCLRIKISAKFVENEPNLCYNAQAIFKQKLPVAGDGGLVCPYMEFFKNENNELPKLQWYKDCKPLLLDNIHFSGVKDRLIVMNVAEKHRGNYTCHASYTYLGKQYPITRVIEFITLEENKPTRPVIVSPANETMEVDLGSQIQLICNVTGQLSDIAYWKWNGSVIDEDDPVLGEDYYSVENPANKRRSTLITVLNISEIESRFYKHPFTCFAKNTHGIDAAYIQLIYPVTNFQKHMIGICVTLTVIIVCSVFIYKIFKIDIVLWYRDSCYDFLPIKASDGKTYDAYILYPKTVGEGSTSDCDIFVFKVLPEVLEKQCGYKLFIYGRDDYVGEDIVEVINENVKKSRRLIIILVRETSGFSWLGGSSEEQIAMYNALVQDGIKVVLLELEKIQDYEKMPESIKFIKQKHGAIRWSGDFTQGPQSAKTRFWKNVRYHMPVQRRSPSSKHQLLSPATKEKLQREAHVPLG
Briefly: IL-1R binding assay.

A further assay relates to IL-1RFc. The assay is described as follows: Competition assay, IL-1RFc held on reservoir beads, released AP activity. The note with it: beads coated with streptavidin or biotin-MBP-AF12413. It is filed as binding. The source says:
This example uses two classes of beads referred to as reservoir beads and library beads. The reservoir beads have receptor immobilized via a known ligand. The library beads have compounds to be screened, identifier tags and tethers as before. A compound released from a library bead competes a labelled receptor from a reservoir bead, and the labelled receptor, directly or indirectly, modifies a tether on proximate library beads. Both sets of beads can be added to nanowells for performing the assay.
500 μl beads (Polysciences, Inc., 2.5% Solids-latex, 2 μm) were washed twice with PBS, resuspended in 1 ml of PBS and split into 5 tubes (a, b, c, d, e). 300 μl 1 mg/ml coating protein was added per tube and incubated at 37° C. for 3 hr on shaker. The beads were washed with PBT. Coating proteins were added in the five tubes as follows: a. BSA-Biotin (Sigma), b. BSA (LC)-Biotin (Sigma), c. Hemocyanin-Biotin (Sigma), d. Streptavidin (Gibco BRL), e. Biotin-MBP-AF12413 [[…](biotin)[…] (SEQ ID NO:30)-maltose binding protein-[…] (SEQ ID NO:31)].
The beads were blocked with 1 ml PBT and incubated at room temperature overnight on shaker and washed with PBT. 300 μl of 1 mg/ml streptavidin and 1.2 ml PBT were added to a, b, c, tubes, which were incubated at; 37° C. for 1 hour on shaker. The tubes were washed twice in PBS. […]

Assay [1] addresses RARa (Retinoic Acid Receptor alpha) (Homo sapiens, UniProt P10276). Briefly: Gal4 DNA binding domain/RARa fusion with 5x UAS-tk-SEAP reporter in CHOK1 cells.
Description: The Gal4 DNA response element (5× UAS) was cloned upstream of the SEAP reporter gene, driven by the tk promoter, into the pGL3 vector (Promega). The pSG5 vector (Stratagene) was used to clone a Gal4 DNA Binding Domain/RARa (Retinoic Acid Receptor alpha)(carboxy end) fusion. These two plasmids were simultaneously transiently lipofected into CHOK1 cells using with Lipofectamine (Gibco BRL). The lipofected cells were seeded into individual wells on 2, 96-well culture plates (Falcon). The cells were grown for 16 hr in 100 μl/well Optimem Media (Gibco) with 10% dilapidated serum (Sigma) that was heat treated at 65° C. for 45 minutes before adding to the media. Serum was heated to inactivate endogenous phosphatases. After 16 hr growth at 37° C., there were 10^4 cells/well. Cells in one plate were stimulated with 1 μM retinoic acid; the cells in the other plate were not stimulated. Media was the same. The plates were incubated in the 37° C. cell culture incubator for another 24 hr. The supernatants were removed from the individual wells on the plates. All supernatants from stimulated cells were pooled; all supernatants from nonstimulated cells were pooled. Both were stored at 4° C. overnight. The cells were discarded.
The next day, 100 μl of each supernatant was tested for SEAP activity using the Tropix Chemiluminescent Assay Kit, as before.

Chain of RARa (Retinoic Acid Receptor alpha) (P10276 whole entry, the tested form may be a part): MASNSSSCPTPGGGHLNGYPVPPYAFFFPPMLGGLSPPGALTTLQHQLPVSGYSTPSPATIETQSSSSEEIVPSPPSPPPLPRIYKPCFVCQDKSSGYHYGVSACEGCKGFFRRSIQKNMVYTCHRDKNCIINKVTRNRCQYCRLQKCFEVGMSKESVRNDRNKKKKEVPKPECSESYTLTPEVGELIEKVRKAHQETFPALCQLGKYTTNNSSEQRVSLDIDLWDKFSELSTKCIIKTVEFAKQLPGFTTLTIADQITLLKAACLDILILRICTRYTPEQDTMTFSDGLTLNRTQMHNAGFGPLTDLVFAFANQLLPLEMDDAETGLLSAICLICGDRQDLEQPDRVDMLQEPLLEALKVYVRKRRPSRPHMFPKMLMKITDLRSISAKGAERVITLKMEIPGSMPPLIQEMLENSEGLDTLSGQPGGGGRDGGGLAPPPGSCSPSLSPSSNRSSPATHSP

For the compound NH2-YEWTPGYYQJY-NH2 [AF12304], the half-maximal inhibitory concentration (IC50) with IL-1R was ~2 nM. Further, in the assay with IL-1RFc, the “Signal of released AP activity” value was “only background signals”.

On to `CC1=C(/C=C/C(C)=C/C=C/C(C)=C/C(=O)O)C(C)(C)CCC1` [retinoic acid], for which the “SEAP produced in supernatant” value in assay [1] (1 μM retinoic acid, 24 hr stimulation) is given as “about 0.52 units of SEAP/ml”. Besides, in assay [1] (CHO-K1, 24 h, read-out: Increase in SEAP production upon stimulation), the fold induction at 1 µM was determined as 126.
